This data set in a line: solubility of SCH-530348 in the coating solvent ethanol. The format is physicochemical. The conditions noted are these: stent coating solution. As to the method:
In the following Example, ethanol is chosen as the solvent of choice. The PAR-1 antagonist is SCH-530348. […] Persons having ordinary skill in the art of polymer chemistry can easily pair the appropriate solvent system to the polymer-drug combination and achieve optimum results with no more than routine experimentation.
250 mg of SCH-530348 is carefully weighed and added to a small neck glass bottle containing 2.8 ml of ethanol. The SCH-530348-ethanol suspension is then thoroughly mixed until a clear solution is achieved.

Consider `CCOC(=O)N[C@@H]1CC[C@@H]2[C@@H](C1)C[C@H]1C(=O)O[C@H](C)[C@H]1[C@H]2/C=C/c1ccc(-c2cccc(F)c2)cn1` [SCH-530348], for which the solubility in ethanol entry was “freely soluble”.

For the origin of these results see patent US20090297576A1, “Local Delivery of PAR-1 Antagonists to Treat Vascular Complications” (MEDTRONIC VASCULAR, INC., priority 2008, published 2009).
